Assay results taken from patent US8557767B2, “Synthetic apolipoprotein E mimicking polypeptides and methods of use” (UAB Research Foundation, priority 2007, dated 2013).

How the values were obtained:
apo E null mice = assay: Atherosclerosis inhibition in apo E null mice, retroorbital administration, en face lesion analysis; assay type: in vivo
Procedure: Extent of lesion is analyzed by en face preparation and staininf with Oil Red O.
Atherosclerosis inhibition studies in apo E null mice that develop atherosclerosis spontaneously were also performed. […] Lesion analysis was performed using the en face preparations. Sixteen week old mice would have well established lesions. […] Detailed studies on the mechanism of the inhibition of atherosclerosis are described below.

[1] = tested on: C57BL/6J mice fed an atherogenic diet; assay: Plasma cholesterol after one-time i.v. administration in C57BL/6J mice fed an atherogenic diet; assay type: in vivo
VCAM-1 = assay: LPS-induced VCAM-1 expression in HUVEC (Western blot); assay type: cell-based, human; conditions: peptide 50 ug/ml, LPS 1 ug/ml, 6 h exposure
Excerpt: HUVECs were challenged with the peptide alone, peptide +LPS and LPS. LPS induces expression of VCAM-1 (lane 3).
(§1) The effect of the peptide on the inflammatory response of bacterial lipopolysaccaride (LPS), a potent inducer of cytokines and cell adhesion molecules was also examined.

[2] = tested on: monocyte chemotaxis protein-1 (MCP-1); assay: LPS-induced MCP-1 in HUVEC; assay type: cell-based, human
Excerpt: as §1

[3] = tested on: THP-1 monocyte derived macrophages; assay: Secretion of de novo synthesized apo E by THP-1 monocyte derived macrophages; assay type: cell-based; conditions: 25 ug/10^6 cells, 35S-methionine, densitometry
Procedure: Bands were developed by autoradiography and quantitated by densitiometry.
THP-1 monocyte derived macrophages were metabolically labeled with ^35S-methionine in RPMI medium containing FBS. Macrophages (10^6 cells) were treated with the dual-domain peptide (25 tjg/10^6 cells) for 5. Conditioned medium was collected and cells were washed with cold PBS. Preparative cocktail containing MEM, plus lupeptin (50 tjg/ml), pepstatin A (50 tjg/ml), and aprotinin (100 kallikrein inactivating units/ml) were added to the medium to preserve oxidative and proteolytic damage. The medium from control cells and peptide-treated medium were concentrated to equal volume and loaded quantitatively on SDS-polyacrylamide gels (4 to 20% PAGE for 2.5 h at 4° C. at 125 volts). The gel was exposed to x-ray film for overnight.

[4] = tested on: C57BL/6 on normal chow, LDL-R(null) mice; assay: Plasma cholesterol in C57BL/6 on normal chow and LDL-R(null) mice; assay type: in vivo; conditions: LDL-R(null) on normal chow or on a Western diet
Excerpt: (§2) Although Ac-hE-18A-NH2 enhanced the hepatic uptake and degradation of atherogenic lipoproteins in apo E null mice, dual knockout mice (LDL-R(null)-apo E(null)), and C57BL/6 on an atherogenic diet, the peptide had no effect on the plasma cholesterol levels of C57BL/6 on normal chow, LDL-R(null) on normal chow or on a Western diet. […] However, the peptide is able to associate with human LDL (containing apo B-100) and VLDL and is able to enhance uptake and degradation of atherogenic human lipoproteins in HepG2 cells and in LDL-R (null) mouse model (Garber, D. W. et al. Atherosclerosis. 163:229-237 2003). The reason for the difference in the properties of apo B-100-containing human LDL and mouse LDL is not clear.

[5] = tested on: B-100-containing particles; assay: Association of peptide with mouse apo B-100-containing particles; assay type: binding; conditions: LDL-R (null) and C57BL6 on normal chow
Excerpt: as §2

WHHL rabbits = assay: Single bolus i.v. administration in WHHL rabbits; assay type: in vivo, rabbit
Procedure: 100 μg of the ^125I-labelled peptide was mixed with 1 ml of plasma from 6 month old WHHL rabbit. After incubation for 1 h at room temperature, the plasma was subjected to CLiP analysis (66). Radioactivity in different fractions was determined and plotted on the CLiP profile. […] This improvement was associated with a reduction in 2 markers of oxidative stress.
Results observed in HepG2 cells indicate that peptide associates with apo B-containing plasma lipoproteins to incorporate positive charges on the lipoprotein surface. This enables the apo B-containing lipoproteins to interact with heparan sulphate proteoglycans (HSPGs). The effect of these peptides on the mode of reduction of plasma cholesterol levels in mouse models and the two rabbit models can be determined. In NZW rabbits fed a 1% cholesterol-diet, a reduction of plasma cholesterol is observed which lasts for 14 days after the peptide administration; whereas in the WHHL rabbits, the reduction is initially rapid and returns to original levels within 3 days. Since the WHHL rabbit model is LDL-receptor defective, the differential effects of the peptide in two models can be due to differences in the receptor-mediated clearance pathways of atherogenic lipoproteins. HepG2 cells, primary hepatocytes from apo E null and LDL-R null mice, and primary rabbit hepatocytes can be used to determine the molecular factors in the receptor-mediated clearance pathways of atherogenic lipoproteins.

[6] = tested on: MEF 1 cells with induced LDL receptors; conditions: cited from earlier work
[7] = 3 mg/kg; 6 weeks of 1% cholesterol diet, one month after administration; not significantly different from control
Excerpt: For these studies, NZW rabbits that respond to diet can be selected. All animals are fed a 1% cholesterol diet and their cholesterol values determined three days after the diet initiation. Twenty rabbits with similar cholesterol levels can be selected and changed back to a normal diet. After 15 days on a normal diet, cholesterol values can once again be determined to check if the values returned to normal. Animals whose cholesterol values have not returned to pre-diet levels can be monitored until they are normalized or removed from the study. Ten rabbits in each group are selected and simultaneous peptide administration and 1% diet initiation can follow. […] To study dose-response effects, smaller number of animals (five in each group can be administered three doses of peptide (5 mg/kg, 3 mg/kg and 1.5 mg/kg). After the initial experiments, the dose of the peptide can be decided. A solution of the peptide (sterile saline) can be injected through the ear vein, once a week for the duration of the study (based on previous experience, for 6 weeks). The study parameters include total cholesterol, lipoprotein levels, LOOH levels, PON activity in the plasma. At the end of six weeks, the rabbits are euthanized and histology assessed.

[8] = experiments where atherogenic lipoprotein reduction was observed; CLiP; cited from earlier work
[9] = single bolus 15 mg/kg intravenous

## Ac-LRKLRKRLLRDWLKAFYDKVAEKLKEAF-NH2 [Ac-hE-18A-NH2]
Apo E null mice; 50 ug/mouse retroorbital, 3 times weekly, four weeks, sixteen week old female apo E null mice, en face, p<0.001
  decreased lesion compared to control group: 40%
Apo E null mice; 12 retroorbital administrations, 50 ug/mouse
  loss of animals / visible injury: no loss of animals and no visible injury to animals was observed
[1]; 100 ug i.v. one time, continued atherogenic diet
  time for which lower total cholesterol levels were observed vs control: ≥ 8 days
[1]; 100 ug i.v., n=9
  initial decrease of plasma cholesterol: > 65%
VCAM-1
  inhibition of LPS-induced VCAM-1 expression: more than 80%
[2]
  effect on MCP-1: also inhibited
[3]
  intensity of 36 kDa apo E band relative to medium of control cells: 4 times
[4]
  effect on plasma cholesterol levels: no effect
[5]
  association with B-100-containing particles: not able to associate
WHHL rabbits; WHHL rabbits
  time for plasma cholesterol to return to original levels: ≤ 3 days
WHHL rabbits; [9]
  arterial endothelial function: significantly improved
  formation of superoxide anion in arteries: significantly reduced
  increase in HDL paraoxonase activity: 5 fold
  plasma lipid hydroperoxide content: reduced significantly
WHHL rabbits; single bolus 15 mg/kg intravenous, reduced from 562±29 mg/dl
  plasma cholesterol levels at 18 h: 287 ± 22 mg/dL
[6]
  LDL internalization enhanced: five
[7]
  average body weight: 4.8 ± 0.4 kg
  average daily food intake: 0.17 ± 0.03 kg
[8]
  effect on HDL levels: did not reduce HDL levels
